Data as given in ChEMBL document CHEMBL3352774 (J Nat Prod, 2014).

Tests used:
Xanthine dehydrogenase = target: T1, Xanthine dehydrogenase (Rhodobacter capsulatus, UniProt O54050); experiment: Inhibition of Rhodobacter capsulatus xanthine dehydrogenase
T1 sequence (O54050 whole entry): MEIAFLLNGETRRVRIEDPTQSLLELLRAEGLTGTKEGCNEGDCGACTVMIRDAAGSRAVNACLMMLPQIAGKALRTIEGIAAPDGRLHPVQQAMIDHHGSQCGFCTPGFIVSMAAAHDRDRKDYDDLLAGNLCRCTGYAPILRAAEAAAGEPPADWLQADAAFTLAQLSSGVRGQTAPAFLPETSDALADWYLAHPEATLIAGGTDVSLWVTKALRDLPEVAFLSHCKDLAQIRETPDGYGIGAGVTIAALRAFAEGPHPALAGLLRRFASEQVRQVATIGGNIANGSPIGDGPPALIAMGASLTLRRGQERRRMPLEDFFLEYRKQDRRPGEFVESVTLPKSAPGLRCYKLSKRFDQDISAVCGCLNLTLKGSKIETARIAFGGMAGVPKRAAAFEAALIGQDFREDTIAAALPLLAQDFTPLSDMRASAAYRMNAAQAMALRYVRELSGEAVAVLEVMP

[1] = target: Xanthine dehydrogenase/oxidase (Bos taurus, UniProt P80457); experiment: Inhibition of bovine milk xanthine oxidoreductase by spectrophotometry
Chain of Xanthine dehydrogenase/oxidase (Bos taurus, UniProt P80457) (P80457 whole entry): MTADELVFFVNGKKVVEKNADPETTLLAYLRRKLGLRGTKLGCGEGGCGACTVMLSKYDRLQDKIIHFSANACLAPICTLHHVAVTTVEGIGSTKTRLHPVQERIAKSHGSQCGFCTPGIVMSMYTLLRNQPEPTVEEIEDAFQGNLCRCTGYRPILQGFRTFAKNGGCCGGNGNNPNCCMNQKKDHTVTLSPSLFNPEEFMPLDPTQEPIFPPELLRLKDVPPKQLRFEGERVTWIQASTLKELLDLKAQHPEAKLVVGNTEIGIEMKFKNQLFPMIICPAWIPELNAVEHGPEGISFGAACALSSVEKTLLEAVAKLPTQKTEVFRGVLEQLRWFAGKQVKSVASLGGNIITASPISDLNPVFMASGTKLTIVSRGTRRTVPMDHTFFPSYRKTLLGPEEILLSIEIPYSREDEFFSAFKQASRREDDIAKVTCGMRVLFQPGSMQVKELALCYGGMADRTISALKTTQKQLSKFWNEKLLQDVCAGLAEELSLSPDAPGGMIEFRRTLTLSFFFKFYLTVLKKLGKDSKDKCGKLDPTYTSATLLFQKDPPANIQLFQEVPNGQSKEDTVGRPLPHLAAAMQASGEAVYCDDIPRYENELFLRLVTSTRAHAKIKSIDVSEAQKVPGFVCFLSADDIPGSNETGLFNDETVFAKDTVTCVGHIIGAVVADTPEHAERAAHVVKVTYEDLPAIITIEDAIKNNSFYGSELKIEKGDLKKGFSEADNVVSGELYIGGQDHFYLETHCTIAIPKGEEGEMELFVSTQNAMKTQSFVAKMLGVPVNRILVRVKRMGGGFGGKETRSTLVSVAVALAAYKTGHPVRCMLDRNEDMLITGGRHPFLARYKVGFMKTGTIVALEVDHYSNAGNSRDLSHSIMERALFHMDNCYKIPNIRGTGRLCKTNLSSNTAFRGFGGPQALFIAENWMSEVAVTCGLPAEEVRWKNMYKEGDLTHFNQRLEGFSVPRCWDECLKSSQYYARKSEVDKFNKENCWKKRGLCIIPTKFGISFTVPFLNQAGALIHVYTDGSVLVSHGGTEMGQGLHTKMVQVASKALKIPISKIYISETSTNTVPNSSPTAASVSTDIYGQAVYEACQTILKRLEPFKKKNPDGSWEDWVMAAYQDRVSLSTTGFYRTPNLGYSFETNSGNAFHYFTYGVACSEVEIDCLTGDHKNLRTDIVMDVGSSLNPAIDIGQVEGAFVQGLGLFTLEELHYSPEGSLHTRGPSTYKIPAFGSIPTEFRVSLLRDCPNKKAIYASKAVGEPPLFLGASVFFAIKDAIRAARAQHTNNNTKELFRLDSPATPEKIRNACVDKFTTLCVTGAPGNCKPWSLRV

[2] = target: T2, Xanthine dehydrogenase/oxidase (Homo sapiens, UniProt P47989); experiment: Inhibition of oxidized form of human xanthine oxidase
T2 sequence (P47989 whole entry): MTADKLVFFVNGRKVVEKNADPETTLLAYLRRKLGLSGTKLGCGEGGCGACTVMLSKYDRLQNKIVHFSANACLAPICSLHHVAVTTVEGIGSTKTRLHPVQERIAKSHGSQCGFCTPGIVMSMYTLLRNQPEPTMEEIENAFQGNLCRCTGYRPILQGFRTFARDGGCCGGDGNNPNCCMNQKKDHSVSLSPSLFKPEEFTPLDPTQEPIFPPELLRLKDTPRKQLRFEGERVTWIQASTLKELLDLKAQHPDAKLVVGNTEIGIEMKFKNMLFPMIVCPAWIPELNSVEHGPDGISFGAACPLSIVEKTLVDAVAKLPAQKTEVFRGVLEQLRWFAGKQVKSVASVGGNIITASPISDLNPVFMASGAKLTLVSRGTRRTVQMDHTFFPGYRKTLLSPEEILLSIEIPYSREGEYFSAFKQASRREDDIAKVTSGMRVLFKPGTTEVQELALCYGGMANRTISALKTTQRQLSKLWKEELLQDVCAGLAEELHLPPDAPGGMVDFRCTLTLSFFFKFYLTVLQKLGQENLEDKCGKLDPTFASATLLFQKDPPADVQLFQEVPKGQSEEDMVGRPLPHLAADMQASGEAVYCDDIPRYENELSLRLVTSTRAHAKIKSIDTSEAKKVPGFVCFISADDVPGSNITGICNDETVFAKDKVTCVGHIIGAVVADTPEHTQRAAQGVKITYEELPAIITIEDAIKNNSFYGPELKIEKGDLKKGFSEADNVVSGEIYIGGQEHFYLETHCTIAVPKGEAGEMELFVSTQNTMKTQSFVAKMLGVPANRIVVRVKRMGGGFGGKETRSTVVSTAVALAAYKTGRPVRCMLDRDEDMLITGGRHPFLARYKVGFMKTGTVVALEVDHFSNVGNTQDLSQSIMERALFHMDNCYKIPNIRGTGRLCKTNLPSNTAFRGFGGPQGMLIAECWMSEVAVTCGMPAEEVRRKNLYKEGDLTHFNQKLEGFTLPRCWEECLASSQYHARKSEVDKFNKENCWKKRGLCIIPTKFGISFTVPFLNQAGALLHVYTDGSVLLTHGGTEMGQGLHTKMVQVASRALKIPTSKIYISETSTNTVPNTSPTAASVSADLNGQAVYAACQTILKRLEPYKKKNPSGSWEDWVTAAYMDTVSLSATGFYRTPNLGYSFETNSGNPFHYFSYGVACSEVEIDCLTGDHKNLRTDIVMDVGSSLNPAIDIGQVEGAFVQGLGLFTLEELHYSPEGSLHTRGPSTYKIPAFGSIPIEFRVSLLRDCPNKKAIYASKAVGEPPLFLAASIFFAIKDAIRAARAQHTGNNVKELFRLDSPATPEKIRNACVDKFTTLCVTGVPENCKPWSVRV

[3] = target: T2, Xanthine dehydrogenase/oxidase; experiment: Inhibition of human xanthine oxidase

**Q.** With `Nc1nc2ncc(C=O)nc2c(=O)[nH]1` as the molecule, how does the Ki (Xanthine dehydrogenase) read?
**A.** Its Ki is 104 nM.

**Q.** And the Ki [1]?
**A.** The Ki was 1.78 nM.

**Q.** What does the source list for `O=c1[nH]c(=O)c2c[nH]nc2[nH]1` [OXYPURINOL]?
**A.** Ki [2]: 1000 nM; Ki [3]: 35 nM

**Q.** `O=c1c(O)c(-c2ccc(O)c(O)c2)oc2cc(O)cc(O)c12` [QUERCETIN] was tested. Which “inhibition (INH)” value ([1]; cattle) did it give?
**A.** The value was “Active”.
